Patent US7361676B2, “Solid preparation containing single crystal form” (Teijin Limited, priority 2002, dated 2008)

Test system: not listed separately
Assay: Physical stability of drug substance crystals at 40° C./75% RH (HPLC degradant, XRD/TG transformation)
Type: physicochemical
Conditions: 40° C./75% RH with closure; analysis XRD or TG
Procedure: Each of the drug substances (crystals A, B, C, D, E and G) of 2-(3-cyano-4-isobutyloxyphenyl)-4-methyl-5-thiazolecarboxylic acid was tested in bottles with and without closure under the conditions of 40° C./75% RH. Any degradant was detected by a HPLC. Their transformation was detected by an X-ray powder diffraction pattern and by a thermal mass measurement method, and the 50% transform time was determined. There was no degradant for all of the six crystal forms.
For the above HPLC, Model 2690 produced by Waters was adopted, using an ODS column with a measured wave length of 217 nm at a predetermined temperature around 40° C.
For the above X-ray powder diffraction, Model XRD-6000 of Shimadzu Corp. was used.
For the above heat mass measurement, Model TGA7, Pyris1 produced by Perkin Elmer was used at a temperature rising speed of 40° C./min.

Row | 50% Transform time | SMILES
1 | (Not changed) | Cc1nc(-c2ccc(OCC(C)C)c(C#N)c2)sc1C(=O)O [Crystal C, 2-(3-cyano-4-isobutyloxyphenyl)-4-methyl-5-thiazolecarboxylic acid]
2 | 5 days | Cc1nc(-c2ccc(OCC(C)C)c(C#N)c2)sc1C(=O)O [Crystal B, 2-(3-cyano-4-isobutyloxyphenyl)-4-methyl-5-thiazolecarboxylic acid]
3 | (Not changed) | Cc1nc(-c2ccc(OCC(C)C)c(C#N)c2)sc1C(=O)O [Crystal G, 2-(3-cyano-4-isobutyloxyphenyl)-4-methyl-5-thiazolecarboxylic acid]
4 | 55 days | Cc1nc(-c2ccc(OCC(C)C)c(C#N)c2)sc1C(=O)O [Crystal E, 2-(3-cyano-4-isobutyloxyphenyl)-4-methyl-5-thiazolecarboxylic acid]
5 | (Not changed) | Cc1nc(-c2ccc(OCC(C)C)c(C#N)c2)sc1C(=O)O [Crystal A, 2-(3-cyano-4-isobutyloxyphenyl)-4-methyl-5-thiazolecarboxylic acid]
6 | 17 days | Cc1nc(-c2ccc(OCC(C)C)c(C#N)c2)sc1C(=O)O [Crystal D, 2-(3-cyano-4-isobutyloxyphenyl)-4-methyl-5-thiazolecarboxylic acid]

Same assay, conditions: 40° C./75% RH without closure; analysis XRD

Row | 50% Transform time | SMILES
7 | 19 days | Cc1nc(-c2ccc(OCC(C)C)c(C#N)c2)sc1C(=O)O [Crystal E, 2-(3-cyano-4-isobutyloxyphenyl)-4-methyl-5-thiazolecarboxylic acid]

Same assay, conditions: 40° C./75% RH without closure; analysis XRD or TG

Row | 50% Transform time | SMILES
8 | (Not changed) | Cc1nc(-c2ccc(OCC(C)C)c(C#N)c2)sc1C(=O)O [Crystal C, 2-(3-cyano-4-isobutyloxyphenyl)-4-methyl-5-thiazolecarboxylic acid]
9 | 0.583 days | Cc1nc(-c2ccc(OCC(C)C)c(C#N)c2)sc1C(=O)O [Crystal B, 2-(3-cyano-4-isobutyloxyphenyl)-4-methyl-5-thiazolecarboxylic acid]
10 | (Not changed) | Cc1nc(-c2ccc(OCC(C)C)c(C#N)c2)sc1C(=O)O [Crystal G, 2-(3-cyano-4-isobutyloxyphenyl)-4-methyl-5-thiazolecarboxylic acid]
11 | (Not changed) | Cc1nc(-c2ccc(OCC(C)C)c(C#N)c2)sc1C(=O)O [Crystal A, 2-(3-cyano-4-isobutyloxyphenyl)-4-methyl-5-thiazolecarboxylic acid]
12 | 0.0104 days | Cc1nc(-c2ccc(OCC(C)C)c(C#N)c2)sc1C(=O)O [Crystal D, 2-(3-cyano-4-isobutyloxyphenyl)-4-methyl-5-thiazolecarboxylic acid]

Same assay, conditions: 40° C./75% RH, storage for three months

Row | SMILES | Transformation of crystal form on storage
13 | Cc1nc(-c2ccc(OCC(C)C)c(C#N)c2)sc1C(=O)O [Crystal C, 2-(3-cyano-4-isobutyloxyphenyl)-4-methyl-5-thiazolecarboxylic acid] | stable
14 | Cc1nc(-c2ccc(OCC(C)C)c(C#N)c2)sc1C(=O)O [Crystal B, 2-(3-cyano-4-isobutyloxyphenyl)-4-methyl-5-thiazolecarboxylic acid] | transformation of crystals B, D and E was detected
15 | Cc1nc(-c2ccc(OCC(C)C)c(C#N)c2)sc1C(=O)O [Crystal G, 2-(3-cyano-4-isobutyloxyphenyl)-4-methyl-5-thiazolecarboxylic acid] | stable
16 | Cc1nc(-c2ccc(OCC(C)C)c(C#N)c2)sc1C(=O)O [Crystal E, 2-(3-cyano-4-isobutyloxyphenyl)-4-methyl-5-thiazolecarboxylic acid] | transformation of crystals B, D and E was detected
17 | Cc1nc(-c2ccc(OCC(C)C)c(C#N)c2)sc1C(=O)O [Crystal A, 2-(3-cyano-4-isobutyloxyphenyl)-4-methyl-5-thiazolecarboxylic acid] | stable
18 | Cc1nc(-c2ccc(OCC(C)C)c(C#N)c2)sc1C(=O)O [Crystal D, 2-(3-cyano-4-isobutyloxyphenyl)-4-methyl-5-thiazolecarboxylic acid] | transformation of crystals B, D and E was detected

Test system: not listed separately
Assay: Intrinsic dissolution rate (USP 24 <1087>)
Type: physicochemical
Conditions: pellets, second fluid of the disintegration test of Japanese Pharmacopoeia, 50 rpm
Procedure: The dissolution rate was measured according to USP 24, <1087>Intrinsic Dissolution. Specifically, the measurement was carried out as follows:
50 mg each of crystals powdered lightly in an agate mortar was set between plates, and a pressure of 754 kgf/cm^2 was applied thereto for one minute to produce pellets. As the testing solution, 900 mL of the second fluid of the disintegration test of Japanese Pharmacopoeia was used and the test was carried out at 50 rpm using the dissolution apparatus produced by Vankel. Subsequently, the testing liquid was filtered through a filter and the resultant, used as the sample solution, was tested with respect to a standard solution by a spectrophotometry (wavelength of 317 nm). The results are shown in Table 2, in which the order of the dissolution rate of the six crystals is as follows: E>A>B>D>G>C.

Row | Intrinsic rate | SMILES
19 | 0.0694 mg/cm^2/min | Cc1nc(-c2ccc(OCC(C)C)c(C#N)c2)sc1C(=O)O [Crystal C, 2-(3-cyano-4-isobutyloxyphenyl)-4-methyl-5-thiazolecarboxylic acid]
20 | 0.1242 mg/cm^2/min | Cc1nc(-c2ccc(OCC(C)C)c(C#N)c2)sc1C(=O)O [Crystal B, 2-(3-cyano-4-isobutyloxyphenyl)-4-methyl-5-thiazolecarboxylic acid]
21 | 0.0967 mg/cm^2/min | Cc1nc(-c2ccc(OCC(C)C)c(C#N)c2)sc1C(=O)O [Crystal G, 2-(3-cyano-4-isobutyloxyphenyl)-4-methyl-5-thiazolecarboxylic acid]
22 | 0.1874 mg/cm^2/min | Cc1nc(-c2ccc(OCC(C)C)c(C#N)c2)sc1C(=O)O [Crystal E, 2-(3-cyano-4-isobutyloxyphenyl)-4-methyl-5-thiazolecarboxylic acid]
23 | 0.1434 mg/cm^2/min | Cc1nc(-c2ccc(OCC(C)C)c(C#N)c2)sc1C(=O)O [Crystal A, 2-(3-cyano-4-isobutyloxyphenyl)-4-methyl-5-thiazolecarboxylic acid]
24 | 0.1092 mg/cm^2/min | Cc1nc(-c2ccc(OCC(C)C)c(C#N)c2)sc1C(=O)O [Crystal D, 2-(3-cyano-4-isobutyloxyphenyl)-4-methyl-5-thiazolecarboxylic acid]

Test system: not listed separately
Assay: Pulverized particle size by image analysis
Type: physicochemical
Conditions: not given
Procedure: Plain tablets were prepared by the method same as that of Example 1 except that particles (Particles 1˜4) shown in Table 7, with crystal A and with four different kinds of average particle sizes, were used as 2-(3-cyano-4-isobutyloxyphenyl)-4-methyl-5-thiazolecarboxylic acid. The obtained plain tablets were coated with coating liquid comprising purified water, polyethylene glycol and hydroxypropylmethyl cellulose by a coating machine (High Coater HCT-30, Freund Ind.).

Row | Pulverized particle size, 95% cumulative diameter | Pulverized particle size, average particle diameter | SMILES
25 | 140.8 μm | 48.6 μm | Cc1nc(-c2ccc(OCC(C)C)c(C#N)c2)sc1C(=O)O [Particle 4, 2-(3-cyano-4-isobutyloxyphenyl)-4-methyl-5-thiazolecarboxylic acid]
26 | 74.7 μm | 26.2 μm | Cc1nc(-c2ccc(OCC(C)C)c(C#N)c2)sc1C(=O)O [Particle 3, 2-(3-cyano-4-isobutyloxyphenyl)-4-methyl-5-thiazolecarboxylic acid]
27 | 29.5 μm | 12.9 μm | Cc1nc(-c2ccc(OCC(C)C)c(C#N)c2)sc1C(=O)O [Particle 2, 2-(3-cyano-4-isobutyloxyphenyl)-4-methyl-5-thiazolecarboxylic acid]
28 | 5.6 μm | 3.5 μm | Cc1nc(-c2ccc(OCC(C)C)c(C#N)c2)sc1C(=O)O [Particle 1, 2-(3-cyano-4-isobutyloxyphenyl)-4-methyl-5-thiazolecarboxylic acid]

Test system: not given
Assay: not given
Conditions: as described in WO99/65885; cited from earlier work

Row | SMILES | Retention of a crystal form in long term storage
29 | Cc1nc(-c2ccc(OCC(C)C)c(C#N)c2)sc1C(=O)O [Crystal C, 2-(3-cyano-4-isobutyloxyphenyl)-4-methyl-5-thiazolecarboxylic acid] | useful in view of retention of a crystal form in long term storage
30 | Cc1nc(-c2ccc(OCC(C)C)c(C#N)c2)sc1C(=O)O [Crystal G, 2-(3-cyano-4-isobutyloxyphenyl)-4-methyl-5-thiazolecarboxylic acid] | useful in view of retention of a crystal form in long term storage
31 | Cc1nc(-c2ccc(OCC(C)C)c(C#N)c2)sc1C(=O)O [Crystal A, 2-(3-cyano-4-isobutyloxyphenyl)-4-methyl-5-thiazolecarboxylic acid] | useful in view of retention of a crystal form in long term storage

Molecular target: xanthine oxidase (Homo sapiens, UniProt P47989)
Assay: not given
Conditions: as described in WO92/09279; cited from earlier work

Chain of xanthine oxidase (P47989 whole entry, species assumed): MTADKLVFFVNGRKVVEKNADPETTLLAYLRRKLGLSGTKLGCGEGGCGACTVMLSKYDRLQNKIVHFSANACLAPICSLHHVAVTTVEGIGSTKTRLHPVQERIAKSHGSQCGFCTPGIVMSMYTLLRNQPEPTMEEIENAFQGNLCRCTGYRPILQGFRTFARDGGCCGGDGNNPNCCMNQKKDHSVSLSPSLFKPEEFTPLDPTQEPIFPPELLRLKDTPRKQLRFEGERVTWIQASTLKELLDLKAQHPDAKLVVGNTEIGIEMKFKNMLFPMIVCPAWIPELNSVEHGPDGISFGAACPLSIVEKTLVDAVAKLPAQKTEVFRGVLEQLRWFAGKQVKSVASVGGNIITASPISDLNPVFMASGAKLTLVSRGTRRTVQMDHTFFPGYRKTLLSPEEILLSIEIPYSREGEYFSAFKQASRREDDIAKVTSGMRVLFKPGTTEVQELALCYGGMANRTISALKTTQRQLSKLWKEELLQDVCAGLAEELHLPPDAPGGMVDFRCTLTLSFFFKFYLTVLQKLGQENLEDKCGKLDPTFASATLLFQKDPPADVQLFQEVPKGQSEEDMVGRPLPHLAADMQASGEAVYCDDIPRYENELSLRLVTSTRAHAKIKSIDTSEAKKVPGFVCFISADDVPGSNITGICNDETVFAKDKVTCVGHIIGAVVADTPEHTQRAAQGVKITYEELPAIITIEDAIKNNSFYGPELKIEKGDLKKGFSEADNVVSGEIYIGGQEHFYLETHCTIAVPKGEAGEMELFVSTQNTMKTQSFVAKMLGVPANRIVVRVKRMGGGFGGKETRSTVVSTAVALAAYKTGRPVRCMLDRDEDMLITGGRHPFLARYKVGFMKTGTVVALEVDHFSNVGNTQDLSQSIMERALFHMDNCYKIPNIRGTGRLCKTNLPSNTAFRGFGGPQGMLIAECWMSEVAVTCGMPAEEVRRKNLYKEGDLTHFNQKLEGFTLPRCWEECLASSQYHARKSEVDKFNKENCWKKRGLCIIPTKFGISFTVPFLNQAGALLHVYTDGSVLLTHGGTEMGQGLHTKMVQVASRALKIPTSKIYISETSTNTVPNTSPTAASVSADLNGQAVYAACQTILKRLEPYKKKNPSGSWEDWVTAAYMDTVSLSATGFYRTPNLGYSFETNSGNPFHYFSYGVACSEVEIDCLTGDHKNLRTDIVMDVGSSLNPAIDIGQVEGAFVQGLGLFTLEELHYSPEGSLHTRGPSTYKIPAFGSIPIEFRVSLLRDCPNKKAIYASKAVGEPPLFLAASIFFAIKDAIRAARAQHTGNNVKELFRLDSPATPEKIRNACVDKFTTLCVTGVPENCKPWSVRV

Row | SMILES | Activity for inhibiting xanthine oxidase
32 | Cc1nc(-c2ccc(OCC(C)C)c(C#N)c2)sc1C(=O)O [2-(3-cyano-4-isobutyloxyphenyl)-4-methyl-5-thiazolecarboxylic acid] | strong activity
